Assay results published in the supplement of paper PMC13380429.
Structures can show the parent of a compound that is named as a salt.

Tests used:
Settings in all cases: 72 h
U2OS [1] = test: drug sensitivity score (DSS) for viability; higher = more toxic; extreme values may be limits of the assay
Caco-2 [2] = test: as above
HepG2 [3] = test: as above
Calu-3 [4] = test: as above
U2OS [5] = test: relative viability EC50 (midpoint between 100% and the lowest measured viability); higher = less toxic
Caco-2 [6] = test: as above
HepG2 [7] = test: as above
Calu-3 [8] = test: as above
U2OS [9] = test: cell viability relative to DMSO; higher = less toxic
Caco-2 [10] = test: as above
HepG2 [11] = test: as above
Calu-3 [12] = test: as above
Vero E6 [13] = test: drug sensitivity score (DSS) for viability; higher = more toxic; extreme values may be limits of the assay
Vero E6 [14] = test: relative viability EC50 (midpoint between 100% and the lowest measured viability); higher = less toxic
Vero E6 [15] = test: cell viability relative to DMSO; higher = less toxic

Row | Compound | drug sensitivity score (U2OS [1]) | drug sensitivity score (Caco-2 [2]) | drug sensitivity score (HepG2 [3]) | drug sensitivity score (Calu-3 [4]) | relative viability EC50 (U2OS [5]) [nM] | relative viability EC50 (Caco-2 [6]) [nM] | relative viability EC50 (HepG2 [7]) [nM] | relative viability EC50 (Calu-3 [8]) [nM] | cell viability (U2OS [9]; 1 nM) [%] | cell viability (U2OS [9]; 10 nM) [%] | cell viability (U2OS [9]; 100 nM) [%] | cell viability (U2OS [9]; 1000 nM) [%] | cell viability (U2OS [9]; 10000 nM) [%] | cell viability (Caco-2 [10]; 1 nM) [%] | cell viability (Caco-2 [10]; 10 nM) [%] | cell viability (Caco-2 [10]; 100 nM) [%] | cell viability (Caco-2 [10]; 1000 nM) [%] | cell viability (Caco-2 [10]; 10000 nM) [%] | cell viability (HepG2 [11]; 1 nM) [%] | cell viability (HepG2 [11]; 10 nM) [%] | cell viability (HepG2 [11]; 100 nM) [%] | cell viability (HepG2 [11]; 1000 nM) [%] | cell viability (HepG2 [11]; 10000 nM) [%] | cell viability (Calu-3 [12]; 1 nM) [%] | cell viability (Calu-3 [12]; 10 nM) [%] | cell viability (Calu-3 [12]; 100 nM) [%] | cell viability (Calu-3 [12]; 1000 nM) [%] | cell viability (Calu-3 [12]; 10000 nM) [%] | drug sensitivity score (Vero E6 [13]) | relative viability EC50 (Vero E6 [14]) [nM] | cell viability (Vero E6 [15]; 1 nM) [%] | cell viability (Vero E6 [15]; 10 nM) [%] | cell viability (Vero E6 [15]; 100 nM) [%] | cell viability (Vero E6 [15]; 1000 nM) [%] | cell viability (Vero E6 [15]; 10000 nM) [%]
1 | O=C1NN(C(=O)Nc2ccc(Br)cc2)[C@@H](c2ccccc2)[C@@H]1c1ccccc1 | 0 | 0 | 0 | 0.3 | > 10000 | > 10000 | > 10000 | > 10000 | 97.3 | 95.4 | 98.5 | 94.8 | 101 | 103 | 98.8 | 100 | 98.6 | 96.7 | 104 | 89.3 | 91.1 | 106 | 89.1 | 96.5 | 90.4 | 93.8 | 91.2 | 86 | – | – | – | – | – | – | –
2 | CCn1cc(C(=O)O)c(=O)c2cnc(N3CCCC3)nc21 [piromidic-acid] | 0 | 0 | 0 | 0 | > 10000 | > 10000 | > 10000 | > 10000 | 99.8 | 98 | 100 | 99.1 | 102 | 103 | 90.3 | 97.6 | 97.1 | 93.7 | 93 | 104 | 96.9 | 103 | 99.3 | 101 | 74.8 | 95.1 | 87 | 98.6 | – | – | – | – | – | – | –
3 | O=C1C2CC=CCC2C(=O)N1SC(Cl)(Cl)Cl (stereo not given) [captan] | 0 | 0 | 3.1 | 0 | > 10000 | > 10000 | > 10000 | > 10000 | 105 | 100 | 105 | 96.1 | 92.1 | 102 | 102 | 101 | 98.6 | 88.9 | 101 | 93.1 | 85.8 | 86.3 | 82.1 | 99.9 | 99.6 | 102 | 106 | 99.4 | – | – | – | – | – | – | –
4 | C[C@@H]1CC[C@@]2(OC1)O[C@H]1C[C@H]3[C@@H]4CC=C5C[C@@H](O[C@@H]6O[C@H](CO)[C@@H](O[C@@H]7O[C@@H](C)[C@H](O)[C@@H](O)[C@H]7O)[C@H](O)[C@H]6O[C@@H]6O[C@@H](C)[C@H](O)[C@@H](O)[C@H]6O)CC[C@]5(C)[C@H]4CC[C@]3(C)[C@H]1[C@@H]2C [dioscin] | – | 9.1 | 9.2 | 8.7 | – | 1560 | 1590 | 1680 | – | – | – | – | – | 97.9 | 92.6 | 95.2 | 75.9 | 2.3 | 96.8 | 97.5 | 90.1 | 76.2 | -0.2 | 96.7 | 89.7 | 97.9 | 79.3 | 2.9 | 9.7 | 1420 | 97 | 103 | 98.4 | 71.1 | 0.9
5 | O=C(/C=C/c1ccc2ccccc2n1)c1ccncc1 [PFK-015] | 6.4 | 5.5 | 8 | 2.5 | 2690 | 2090 | 1990 | – | 93 | 94.8 | 95.4 | 94 | 0 | 93.3 | 96.3 | 95.8 | 90.6 | 29.7 | 106 | 89.6 | 110 | 85 | 0.1 | 107 | 105 | 88 | 97 | 59.2 | 6.2 | 2680 | 101 | 94.9 | 98 | 94.1 | 4.2
6 | Nc1nc(NC2CC2)c2ncn([C@H]3C=C[C@@H](CO)C3)c2n1 [ABACAVIR SULFATE] | 0 | 0 | 0 | 0 | > 10000 | > 10000 | > 10000 | > 10000 | 99.9 | 102 | 97.1 | 106 | 99.7 | 102 | 104 | 94.3 | 98.4 | 95.1 | 101 | 95.2 | 97.7 | 90.3 | 96 | 89.4 | 96.3 | 97.7 | 100 | 97.1 | – | – | – | – | – | – | –
7 | N=C(N)Nc1ccc(Cl)cc1 [4-chlorophenylguanidine] | 0 | 0 | 0 | 0 | > 10000 | > 10000 | > 10000 | > 10000 | 102 | 95.9 | 99.7 | 96.5 | 101 | 103 | 100 | 97 | 95.1 | 95.6 | 99.6 | 99.2 | 107 | 115 | 93.2 | 93 | 89.4 | 94.6 | 91.7 | 102 | – | – | – | – | – | – | –
8 | CNC(=O)Nc1ccc(-c2nc(N3CC4CCC(C3)O4)c3cnn(C4CCC5(CC4)OCCO5)c3n2)cc1 | – | 19.5 | 20.8 | 25.1 | – | 38.1 | 64.8 | 12.2 | – | – | – | – | – | 111 | 85.1 | 50.6 | 32.3 | 33.1 | 98.6 | 97.6 | 47.1 | 31.2 | 20.8 | 94.2 | 67.2 | 36.7 | 28 | 30.7 | 14.1 | 109 | 94.1 | 93 | 70.1 | 43.8 | 36.4
